target: Pol Theta (1-894) (Homo sapiens (Human), UniProt O75417); assay: Biochemical Pol Theta (1-894) ATPase IC50 assay (ADP-Glo, ssDNA substrate); conditions: ADP-Glo assay with ssDNA substrate, room temperature
Experimental: Baculovirus Expression of Human POL theta (1-894)
Human POL Theta (1-894)-His-pFastBac1 baculovirus samples were generated using the Bac-to-Bac baculovirus expression system (Invitrogen) according to the manufacturer's protocol. […] Baculovirus amplification was achieved using infected SF9 cells at 1:2000 virus/cells ratios, and grown for 96 hours at 27° C. post-transfection. The expression scaled up for each protein was carried out in the flask 3 L from CORNING. 4 L of 3×10^6 cells/mL Sf9 cells (Expression System, Invitrogen) grown in SF900TM II SFM insect medium (Expression System) were infected with virus stock at 1:200 virus/cell ratios, and grown for 48 hours at 27° C. post-transfection. The infected cell culture was harvested by centrifugation at 6000 rpm for 15 min 4° C. in a SORVALL LYNX6000 centrifuge. The cell pellets were stored at −80° C.
The human POL Theta (1-894)-His produced as described above, were purified from Sf9 baculovirus-infected insect cell paste. The cells were lysed using sonication method, and the lysates were clarified by centrifugation.
Enzymatic reactions of Pol Theta (1-894) were performed using ADP-Glo assay with ssDNA substrate. Pol Theta (1-894) was expressed in baculovirus expression system. The inhibition activities testing for the compound disclosed herein were carried out at room temperature in assay buffer containing 40 mM Tris pH 7.5, 20 mM MgCl2, 1 mM DTT, 0.01% BSA and 0.05% Tween-20. Compounds in DMSO were dispensed into wells of a black 384 well plate (Corning 4514) using D300e digital dispenser (Tecan). The ranges of compounds final concentration were 2.62 nM˜10000 nM. 3 μL 2× enzyme solution containing 12.5 nM enzyme was added to wells. […] After 1 hour reaction, 5 μL ADP-Glo reagent (Promga V9102) was added and incubated for 40 minutes. 10 μL Kinase Detection reagent was added and incubated for 40 minutes. Luminescence was measured on a microplate reader (PHERAstar FSX, BMG labtech). The IC50 values were calculated based on inhibition of enzyme activity in the presence of increasing concentrations of compounds.

Chain of Pol Theta (1-894) (O75417 1-894): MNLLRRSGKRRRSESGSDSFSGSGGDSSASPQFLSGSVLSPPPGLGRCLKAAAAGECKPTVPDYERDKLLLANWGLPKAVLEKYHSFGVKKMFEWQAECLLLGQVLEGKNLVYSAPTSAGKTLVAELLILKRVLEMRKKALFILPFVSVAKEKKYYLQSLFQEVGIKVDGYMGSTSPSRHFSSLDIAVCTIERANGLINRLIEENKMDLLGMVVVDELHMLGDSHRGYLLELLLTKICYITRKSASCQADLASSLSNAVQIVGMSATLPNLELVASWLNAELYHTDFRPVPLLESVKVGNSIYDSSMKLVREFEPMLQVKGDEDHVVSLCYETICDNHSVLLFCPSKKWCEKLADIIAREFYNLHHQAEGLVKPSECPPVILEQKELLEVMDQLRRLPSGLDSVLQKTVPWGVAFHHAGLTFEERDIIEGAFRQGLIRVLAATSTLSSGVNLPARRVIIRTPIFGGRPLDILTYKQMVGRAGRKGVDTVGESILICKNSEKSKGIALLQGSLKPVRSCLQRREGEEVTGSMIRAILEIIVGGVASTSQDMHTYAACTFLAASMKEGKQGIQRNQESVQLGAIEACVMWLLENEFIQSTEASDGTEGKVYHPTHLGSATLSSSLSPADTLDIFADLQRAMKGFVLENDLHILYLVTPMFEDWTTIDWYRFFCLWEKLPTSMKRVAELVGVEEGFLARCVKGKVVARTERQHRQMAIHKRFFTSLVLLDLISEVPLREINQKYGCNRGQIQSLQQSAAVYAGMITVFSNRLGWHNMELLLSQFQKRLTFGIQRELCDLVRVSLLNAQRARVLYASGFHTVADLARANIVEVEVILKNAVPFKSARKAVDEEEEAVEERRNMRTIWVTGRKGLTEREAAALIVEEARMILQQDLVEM

| Structure (SMILES) | IC50 [nM] |
| --- | --- |
| COc1ccccc1-c1cnncc1C(=O)Nc1nc2ccc(Cc3ccc(Cl)cc3)nc2s1 [Example 69, N-(5-(4-chlorobenzyl)thiazolo[5,4-b]pyridin-2-yl)-5-(2-methoxyphenyl)pyridazine-4-carboxamide] | 45 |
| COc1ccc(C#N)cc1-c1cc(C)ncc1C(=O)Nc1nc2ccc(-c3ccc(C#N)cn3)nc2s1 [Example 159, 4-(5-cyano-2-methoxyphenyl)-N-(5-(5-cyanopyridin-2-yl)thiazolo[5,4-b]pyridin-2-yl)-6-methylnicotinamide] | 5 |
| COc1ccccc1-c1cnncc1C(=O)Nc1nc2ccc(-c3c(C)cc(Cl)cc3Cl)nc2s1 [Example 150, N-(5-(2,4-dichloro-6-methylphenyl)thiazolo[5,4-b]pyridin-2-yl)-5-(2-methoxyphenyl)pyridazine-4-carboxamide] | 43 |
| COCc1ccc(OC)c(-c2cc(C)ncc2C(=O)Nc2nc3ccc(-c4ccc(C#N)cc4)nc3s2)c1 [Example 66, N-(5-(4-cyanophenyl)thiazolo[5,4-b]pyridin-2-yl)-4-(2-methoxy-5-(methoxymethyl)phenyl)-6-methylnicotinamide] | 99 |
| COc1ccccc1-c1cnncc1C(=O)Nc1nc2ccc(-c3ccc(Cl)cc3)nc2s1 [Example 9, N-(5-(4-chlorophenyl)thiazolo[5,4-b]pyridin-2-yl)-5-(2-methoxyphenyl)pyridazine-4-carboxamide] | 20 |
| COc1ccccc1-c1cc(C#N)ncc1C(=O)Nc1nc2ccc(-c3ccc(NC(C)=O)cc3)nc2s1 [Example 27, N-(5-(4-acetamidophenyl)thiazolo[5,4-b]pyridin-2-yl)-6-cyano-4-(2-methoxyphenyl)nicotinamide] | 67 |
| COc1cccc(C)c1-c1cc(C)ncc1C(=O)Nc1nc2ccc(-c3ccc(C#N)cc3)nc2s1 [Example 87, N-(5-(4-cyanophenyl)thiazolo[5,4-b]pyridin-2-yl)-4-(2-methoxy-6-methylphenyl)-6-methylnicotinamide] | 371 |
| COc1ccc(C#N)cc1-c1cc(C)ncc1C(=O)Nc1nc2ccc(-c3ccc(F)cc3)nc2s1 [Example 30, 4-(5-cyano-2-methoxyphenyl)-N-(5-(4-fluorophenyl)thiazolo[5,4-b]pyridin-2-yl)-6-methylnicotinamide] | 222 |
| COc1ccc(C#N)cc1-c1cc(C)ncc1C(=O)Nc1nc2ccc(-c3ccc(NS(C)(=O)=O)cc3)nc2s1 [Example 18, 4-(5-cyano-2-methoxyphenyl)-6-methyl-N-(5-(4-(methylsulfonamido)phenyl)thiazolo[5,4-b]pyridin-2-yl)nicotinamide] | 11 |
| COc1cc(Cl)ccc1Oc1ccc2nc(NC(=O)c3cnncc3-c3ccccc3OC)sc2n1 [Example 154, N-(5-(4-chloro-2-methoxyphenoxy)thiazolo[5,4-b]pyridin-2-yl)-5-(2-methoxyphenyl)pyridazine-4-carboxamide] | 60 |
| COc1ccc(C#N)cc1-c1nc(C#N)ccc1C(=O)Nc1nc2ccc(-c3ccc(Cl)cc3)nc2s1 [Example 7, N-(5-(4-chlorophenyl)thiazolo[5,4-b]pyridin-2-yl)-6-cyano-2-(5-cyano-2-methoxyphenyl)nicotinamide] | 92 |
| COc1ccccc1-c1ccncc1C(=O)Nc1nc2ccc(-c3ccc(Cl)cc3)nc2s1 [Example 2, N-(5-(4-chlorophenyl)thiazolo[5,4-b]pyridin-2-yl)-4-(2-methoxyphenyl)nicotinamide] | 191 |
| CCNC(=O)c1ccc(-c2ccc3nc(NC(=O)c4cnncc4-c4ccccc4OC)sc3n2)c(C)c1 [Example 132, N-(5-(4-(ethylcarbamoyl)-2-methylphenyl)thiazolo[5,4-b]pyridin-2-yl)-5-(2-methoxyphenyl)pyridazine-4-carboxamide] | 12 |
| COc1c(C#N)cccc1-c1cc(C)ncc1C(=O)Nc1nc2ccc(-c3ccc(C#N)cc3)nc2s1 [Example 82, 4-(3-cyano-2-methoxyphenyl)-N-(5-(4-cyanophenyl)thiazolo[5,4-b]pyridin-2-yl)-6-methylnicotinamide] | 272 |
| CCC(=O)Nc1ccc(-c2ccc3nc(NC(=O)c4cnc(C)cc4-c4cc(C#N)ccc4OC)sc3n2)cc1 [Example 41, 4-(5-cyano-2-methoxyphenyl)-6-methyl-N-(5-(4-propionamidophenyl)thiazolo[5,4-b]pyridin-2-yl)nicotinamide] | 91 |
| Cc1cc(-c2cc(C#N)ccc2C)c(C(=O)Nc2nc3ccc(-c4ccc(C#N)cc4)nc3s2)cn1 [Example 106, 4-(5-cyano-2-methylphenyl)-N-(5-(4-cyanophenyl)thiazolo[5,4-b]pyridin-2-yl)-6-methylnicotinamide] | 26 |
| Cn1nccc1-c1ccc2nc(NC(=O)c3ccc(C#N)nc3N3CCOCC3)sc2n1 [Example 15, 6-cyano-N-(5-(1-methyl-1H-pyrazol-5-yl)thiazolo[5,4-b]pyridin-2-yl)-2-morpholinonicotinamide] | 206 |
| COc1ccccc1-c1cnncc1C(=O)Nc1nc2ccc(-c3ccc(N4COCC4=O)cc3)nc2s1 [Example 149, 5-(2-methoxyphenyl)-N-(5-(4-(4-oxooxazolidin-3-yl)phenyl)thiazolo[5,4-b]pyridin-2-yl)pyridazine-4-carboxamide] | 18 |
| COc1ccccc1-c1cnncc1C(=O)Nc1nc2ccc(-c3ccc(Cl)c(C)c3C)nc2s1 [Example 139, N-(5-(4-chloro-2,3-dimethylphenyl)thiazolo[5,4-b]pyridin-2-yl)-5-(2-methoxyphenyl)pyridazine-4-carboxamide] | 21 |
| Cc1cc(-c2cccc3[nH]ncc23)c(C(=O)Nc2nc3ccc(-c4ccc(C#N)cc4)nc3s2)cn1 [Example 61, N-(5-(4-cyanophenyl)thiazolo[5,4-b]pyridin-2-yl)-4-(1H-indazol-4-yl)-6-methylnicotinamide] | 121 |
| COc1ccccc1-c1cnncc1C(=O)Nc1nc2ccc(-c3cc(C)c(NC(C)=O)cc3C)nc2s1 [Example 141, N-(5-(4-acetamido-2,5-dimethylphenyl)thiazolo[5,4-b]pyridin-2-yl)-5-(2-methoxyphenyl)pyridazine-4-carboxamide] | 3.1 |
| COc1ccc(S(C)(=O)=O)cc1-c1cc(C)ncc1C(=O)Nc1nc2ccc(-c3ccc(C(N)=O)c(C)c3)nc2s1 [Example 175, N-(5-(4-carbamoyl-3-methylphenyl)thiazolo[5,4-b]pyridin-2-yl)-4-(2-methoxy-5-(methylsulfonyl)phenyl)-6-methylnicotinamide] | 8.4 |
| CNC(=O)c1ccc(-c2ccc3nc(NC(=O)c4cnncc4-c4ccccc4OC)sc3n2)c(C)c1 [Example 134, 5-(2-methoxyphenyl)-N-(5-(2-methyl-4-(methylcarbamoyl)phenyl)thiazolo[5,4-b]pyridin-2-yl)pyridazine-4-carboxamide] | 15 |
| COc1ccccc1-c1cnncc1C(=O)Nc1nc2ccc(-c3ccc(Cl)c4nn(C)cc34)nc2s1 [Example 126, N-(5-(7-chloro-2-methyl-2H-indazol-4-yl)thiazolo[5,4-b]pyridin-2-yl)-5-(2-methoxyphenyl)pyridazine-4-carboxamide] | 12 |
| COc1ccccc1-c1cnncc1C(=O)Nc1nc2ccc(Oc3ccc(Cl)cc3)nc2s1 [Example 98, N-(5-(4-chlorophenoxy)thiazolo[5,4-b]pyridin-2-yl)-5-(2-methoxyphenyl)pyridazine-4-carboxamide] | 22 |
| Cc1cc(-c2cc(S(C)(=O)=O)ccc2C2CC2)c(C(=O)Nc2nc3ccc(-c4ccc(C#N)cc4)nc3s2)cn1 [Example 157, N-(5-(4-cyanophenyl)thiazolo[5,4-b]pyridin-2-yl)-4-(2-cyclopropyl-5-(methylsulfonyl)phenyl)-6-methylnicotinamide] | 70 |
| COc1ccc(C#N)cc1-c1cc(F)ncc1C(=O)Nc1nc2ccc(-c3ccc(C#N)cc3)nc2s1 [Example 39, 4-(5-cyano-2-methoxyphenyl)-N-(5-(4-cyanophenyl)thiazolo[5,4-b]pyridin-2-yl)-6-fluoronicotinamide] | 73 |
| COc1ccc(C#N)cc1-c1cc(C)ncc1C(=O)Nc1nc2ccc(-c3ccc(C(N)=O)cc3)nc2s1 [Example 21, N-(5-(4-carbamoylphenyl)thiazolo[5,4-b]pyridin-2-yl)-4-(5-cyano-2-methoxyphenyl)-6-methylnicotinamide] | 81 |
| COc1ccccc1-c1cnncc1C(=O)Nc1nc2ccc(-c3ccc(C#N)cc3C)nc2s1 [Example 121, N-(5-(4-cyano-2-methylphenyl)thiazolo[5,4-b]pyridin-2-yl)-5-(2-methoxyphenyl)pyridazine-4-carboxamide] | 4.9 |
| COc1ccccc1-c1cnncc1C(=O)Nc1nc2ccc(-c3ccc(Cl)cc3C)nc2s1 [Example 97, N-(5-(4-chloro-2-methylphenyl)thiazolo[5,4-b]pyridin-2-yl)-5-(2-methoxyphenyl)pyridazine-4-carboxamide] | 27 |

From patent US20250026766A1, “Thiazolopyridyl Amide Derivatives as DNA Polymerase Theta Inhibitors” (BeiGene, Ltd., priority 2022, published 2025)
